The target in experiment [1] is novel receptor obtainable from rat forebrain tissue. The experiment in a line: Radioligand binding assay, displacement of [3H]-Compound A from rat forebrain tissue. The settings on record: [3H]-Compound A 20 nM, room temperature, 1 hour. Here is the method:
The affinity of test compounds to the novel receptor site is assessed as follows. Whole forebrain tissue is obtained from rats. The tissue is first homogenised in buffer (usually 50 mM Tris/HCl, pH 7.4). The homogenised tissue is washed by centrifugation and resuspension in the same buffer, then stored at -70° C. until used. […] The final concentration of [3H]-Compound A in the mixture is usually 20 nM. The mixture is incubated at room temperature for 1 hour. [3H]-Compound A bound to the tissue is then separated from unbound [3H]-Compound A by filtration through Whatman GF/B glass fibre filters. The filters are then washed rapidly with ice-cold buffer. The amount of radioactivity bound to the tissue trapped on the filters is measured by addition of liquid scintillation cocktail to the filters followed by counting in a liquid scintillation counter. In order to determine the amount of "specific" binding of [3H]-Compound A, parallel assays are carried out as above in which [3H]-Compound A and tissue are incubated together in the presence of unlabelled Compound A (usually 3 μM). The amount of binding of [3H]-Compound A remaining in the presence of this unlabelled compound is defined as "non-specific" binding. This amount is subtracted from the total amount of [3H]-Compound A binding (i.e. that present in the absence of unlabelled compound) to obtain the amount of "specific" binding of [3H]-Compound A to the novel site. The affinity of the binding of test compounds to the novel site can be estimated by incubating together [3H]-Compound A and tissue in the presence of a range of concentrations of the compound to be tested. The decrease in the level of specific [3H]Compound A binding as a result of competition by increasing concentrations of the compound under test is plotted graphically, and non-linear regression analysis of the resultant curve is used to provide an estimate of compound affinity in terms of pKi value.
(Displacement assays read how much labelled ligand stays bound in the presence of the test substance.)

For experiment [2], the system named is electrically-induced seizures (tonic seizure threshold, CC50). The experiment can be described thus: Maximal electroshock seizure (MEST) threshold test. In kind it is in vivo. The note with it: mice, 10 mg/kg p.o., suspension in methyl cellulose, one hour post dosing.

Each structure is given as a SMILES string. Where a name gives a salt, the structure may show the parent alone. Bounds are passed on as bounds.

Consider `COc1ccc(C(=O)Nc2cnc3c(c2)CN(C)CC3)cc1Br.Cl` [Example 1, N-(6-Methyl-5,6,7,8-tetrahydro[1,6]naphthyridin-3-yl)-3-bromo-4-methoxybenzamide, monohydrochloride], for which the “in vitro binding affinity, pKi” value in experiment [1] is > 8.0. In experiment [2], the “increase in seizure threshold (CC50) compared to control” value (shortened to “increase in seizure threshold (CC50)”) amounted to 177%. For `CN1CCc2ncc(NC(=O)c3ccccc3)cc2C1` [Example 2, N-(6-Methyl-5,6,7,8-tetrahydro[1,6]naphthyridin-3-yl)-benzamide], the “increase in seizure threshold (CC50)” value in experiment [2] amounted to 97%.

With `COc1cc(C(C)(C)C)ccc1C(=O)Nc1cnc2c(c1)CN(C)CC2.Cl` [Example 3, N-(6-Methyl-5,6,7,8-tetrahydro[1,6]naphthyridin-3-yl)-2-methoxy-4-t-butylbenzamide, monohydrochloride], in experiment [1], the “in vitro binding affinity, pKi” value is on record as > 8.0. Turning to `CCOc1ccc(C(=O)Nc2cnc3c(c2)CN(C)CC3)cc1` [Example 5, N-(6-Methyl-5,6,7,8-tetra hydro[1,6]naphthyridin-3-yl)-4-ethoxybenzamide, monohydrochloride], the “increase in seizure threshold (CC50)” value in experiment [2] came to 106%. Regarding `CN1CCc2ncc(NC(=O)c3ccc(C(C)(C)C)cc3)cc2C1` [Example 10, N-(6-Methyl-5,6,7,8-tetrahydrol[1,6]naphthyridin-3-yl)-4-t-butylbenzamide, monihydrochloride], the “in vitro binding affinity, pKi” value in experiment [1] is listed as > 8.0. The same measure, in the same setting: then `CCOc1ccc(C(=O)Nc2cnc3c(c2)CN(C)CC3)cc1Br` [Example 11, N-(6-Methyl-5,6,7 ,8-tetrahydro[1,6]naphthyridin-3-yl)-3-bromo-4-ethoxybenzamide, monohydrochloride], with > 8.0; and `CC(C)Oc1ccc(C(=O)Nc2cnc3c(c2)CN(C)CC3)cc1Br.Cl` [Example 12, N-(6-Methyl-5,6,7,8-tetrahydro[1,6]naphthyridin-3-yl)-3-bromo-4-iso-propyloxybenzamide, monohydrochloride], with > 8.0. Still for that read-out and setting: the value for `CCOc1ccc(C(=O)Nc2cnc3c(c2)CN(C)CC3)cc1[N+](=O)[O-].Cl` [Example 20, N-(6-Methyl-5,6,7,8-tetrahydro[1,6]naphthyridin-3-yl)-4-ethoxy-3-nitrobenzamide hydrochloride] was > 8.0; that for `COc1ccc(C(=O)Nc2cnc3c(c2)CN(C)CC3)cc1I.Cl` [Example 28, N-(6-Methyl-5,6,7,8-tetrahydro[1,6]naphthyridin-3-yl)-3-iodo-4-methoxybenzamide hydrochloride] was > 8.0; that for `CCCOc1ccc(C(=O)Nc2cnc3c(c2)CN(C)CC3)cc1C#N` [Example 30, N-(6-Methyl-5,6,7,8-tetrahydro[1,61naphthyridin-3yl)-3-cyano-4-n-propyloxybenzamide, hydrochloride] was > 8.0. Same read-out and setting: the value for `CC(C)Oc1ccc(C(=O)Nc2cnc3c(c2)CN(C)CC3)cc1Cl.Cl` [Example 33, N-(6-Methyl-5,6,7,8-tetrahydro[1,6]naphthyridin-3-yl)-3-chloro-4-iso-propyloxybenzamide, hydrochloride] was > 8.0; that for `CC(C)Oc1ccc(C(=O)Nc2cnc3c(c2)CN(C)CC3)cc1C(F)(F)F.Cl` [Example 36, N-(6-Methyl-5,6,7,8-tetrahydro[1,6]naphthyridin-3-yl)-4-iso-propyloxy-3-trifluoromethylbenzamide, hydrochloride] was > 8.0.
